Source: patent publication US20110071225A1, “METHOD FOR OBTAINING A SEQUOYITOL-CONTAINING EXTRACT FROM GENUS NEPHROLEPIS AND USES THEREOF” (GUANGZHOU WELMAN NEW DRUG R&D CO., LTD., priority 2008, published 2011)

Key:
[1] = tested on: diabetes models; settings: sequoyitol isolated from Taxus chinensis; cited from earlier work
[2] = Solubility in water; assay type: physicochemical
Experimental: Sequoyitol was dissolved in water and sterilized by filtration. Solutions for injection were prepared according to the operation procedure of solutions for injection. Powder for injection was prepared according to the operation procedure of lyophilized powder for injection.

[3] = sequoyitol isolated from Taxus chinensis; cited from earlier work
[4] = tested on: elevated level of blood glucose induced by alloxan in mice; test: Effect on the elevated level of blood glucose induced by alloxan in mice; assay type: in vivo; settings: 75 mg/kg via gavage, 7 days
Experimental: 80 male mice weighed 22˜25 g were used. 20 mice were randomly taken as the blank group. Others were injected intravenously with alloxan via caudal vein at a dose of 65 mg/kg body weight, and then modeled according to established methods. The mice were divided into 3 groups according to their level of blood glucose, in which 2 groups were administered via gavage with 60 mg/kg of the Nephrolepis auriculata extract, 75 mg/kg of phenformin (positive control) respectively for consecutive 7 days, in a volume of 0.1 ml/10 g body weight. The same volume of distilled water was administered to the blank group and the control group. Blood glucose was determined using glucose oxidase method.

| Structure (SMILES) | Absorption of glucose [1] | Breakdown of hepatic glycogen [1] | High glycemia in diabetes models [1] | Solubility in water [2] | Toxicity [3] | Decrease of hyperglycemia induced by alloxan vs control group [4] |
| --- | --- | --- | --- | --- | --- | --- |
| CO[C@H]1[C@H](O)[C@@H](O)[C@@H](O)[C@@H](O)[C@@H]1O [Sequoyitol, sequoyitol] | inhibits | inhibits | remarkably decreases | well soluble | very low toxicity |  |
| [H]/N=C(/N)N/C(=N/[H])NCCc1ccccc1 [phenformin] |  |  |  |  |  | 152.8 mg/dL |
